Assay results taken from patent US7745420B2, “Methods for increasing in vivo efficacy of oligonucleotides and inhibiting inflammation in mammals” (Topigen Pharmaceutique, Inc., priority 2001, dated 2010).
[DAP] = 2,6-diaminopurine base replacing adenine; [I] = hypoxanthine (inosine)

Key:
rat model of asthma [1] = assay: Cellular influx into the lungs after antigen challenge (lung lavage differential cell count); type: in vivo; conditions: 200 μg intratracheal before ovalbumin challenge; for inhibition of recruitment of eosinophils: bronchoalveolar lavage after 15 hours
Method: (§1) Active sensitization of rats was performed by subcutaneous injection of 1 ml of saline containing 1 mg of chicken egg ovalbumin (OA) (Sigma, St. Louis, Mo.) and 3.5 mg of aluminum hydroxide gel (BDH Chemicals, Poole, UK).
On day 14 after sensitization with ovalbumin, after general anesthesia with 65 mg/Kg pentothal and endotracheal intubation, ovalbumin challenge is performed by injecting 200 micrograms of ovalbumin in 60 μl intratracheally. After 8 hours or 15 hours, the rats are again intubated after general anesthesia and a lung lavage consisting of 5 times 5 ml instillation of 0.9% saline is performed. Cells are washed, counted and centrifuged onto slides in a Cytospin III™. A differential cell count is performed.
On day 14, the rats were intubated after general anesthesia with pentothal (65 mg/kg) and received 200 μg of ASA4, ASA4-DAP (5′-DapCTCDapTDapTTCDapTDapGGGTG-3′; SEQ ID NO:27), AS141-DAP (5′-TGGCDapCTTTDapGGTGGCTG-3′; SEQ ID NO:29), mismatch AS141-DAP (5′-GTGCCDapTTTGDapGTGGCTG-3′; SEQ ID NO:30), combination of ASA4-DAP and AS141-DAP (total of 100 μg) or saline in 50 μl of 0.9% NaCl intratracheally. Twenty minutes later ovalbumin challenge is performed by injecting 200 μg of ovalbumin in 50 μl of 0.9% saline intratracheally. After 15 hours, the rats were again intubated after general anesthesia, and a lung lavage consisting of 5 times 5 ml instillation was performed. Cells were washed, counted and centrifuged onto slides in a Cytospin III™. A differential cell count was finally performed.

rat model of asthma [2] = conditions: see WO 99/66037; cited from earlier work
[3] = tested on: sensitized but unchallenged Brown Norway rats; assay: Cellular influx into the lungs after adenosine or DAP administration; type: in vivo, rat
Method: Fourteen days after sensitization, the rats were intubated after anesthesia with pentothal 65 mg/kg, and 100 μg of adenosine or 2-amino-2′-deoxyadenosine or of 2-amino-2′deoxyadenosine followed 10 minutes later by adenosine or of saline was injected intratracheally in 50 μl. Fifteen hours later, the rats were intubated after general anesthesia with pentothal, and a lung lavage was performed and the cells were counted as described above.
In another experiment, groups of six sensitized but unchallenged Brown Norway rats were anesthetized with pentothal and endotracheally intubated. The rats then received an intratracheal injection of either (1) saline (control), (2) 100 μg of adenosine, (3) 100 μg of 2-amino-2′-deoxyadenosine (DAP) or (4) 100 μg of DAP followed by 100 μg of adenosine 10 minutes later. The rats were awakened, re-anesthetized and intubated 15 hours later for a lung lavage. Cells that were present in media collected from the lavage, were counted and a differential was obtained on Cytospin∩ slides.

[4] = tested on: sensitized Brown Norway rats; assay: Airway responsiveness (lung resistance) to intratracheal adenosine, DAP nucleoside and DAP analogs; type: in vivo, rat
Method: as §1
(§2) The equipment and methodology for measuring pulmonary resistance was as previously described (Renzi, P. M., et al. Am. Rev. Respir. Dis 146: 163-169, 1992). General anesthesia was induced with either pentothal (50 mg/kg) or urethane (1.1 g/kg) intra-peritoneally. Endo-tracheal intubation was then performed using a 6 cm length of PE-240™ polyethylene catheter. A heating pad was used to maintain constant body temperature and rectal temperature was monitored continuously with an electronic thermometer (Telethermometer™, Yellow Springs Instrument Co., Yellowsprings, Ohio). Lung resistance (RL) was measured during spontaneous tidal breathing with the animals in the lateral decubitus position. Flow was measured by placing the tip of the tracheal tube inside a small Plexiglass™ box (265 ml in volume). A Fleish™ No. 0 pneumotachograph coupled to a differential pressure transducer (MP-45+2 cm H20; Validyne Corp, Northridge, Calif.) was attached to the other end of the box to measure airflow, and volume was obtained by numerical integration of the flow signal. Changes in esophageal pressure were measured by using a saline-filled catheter and a differential pressure transducer (Sanborn 267 BC™; Hewlett Packard, Waltham, Mass.). The other port of the transducer was connected to the box. The esophageal catheter consisted of polyethylene tubing (PE-200™) 20-cm long attached to a shorter length (6 cm) of tubing (PE-100™). Transpulmonary pressure was computed as the difference between esophageal and box pressure. The airway response was evaluated from RL, which was determined by fitting the equation of motion of the lung by multiple linear regression using commercial software (RHT-Infodat Inc., Montreal, Quebec, Canada).
On day 14 post-sensitization, rats were anesthetized with pentothal (65 mg/kg), intubated, and baseline RL was measured. Rats were given incremental doses intratracheally of adenosine (CAS 58-61-7), 2,6-diaminopurine hemisulfate salt (CAS 69369-16-0), DAP (2-amino-2-deoxyadenosine; CAS 4546-70-7), 2-amino-9-(B-D-2′-deoxyribo furanosyl)purine (CAS 3616-24-8), 7-Deaza-2′deoxyadenosine (CAS 60129-59-1), N6-Methyl-2′-deoxyadenosine (CAS 2002-35-9), 2-aminoadenosine/2,6-diamunopurine riboside (CAS 2096-10-08) over the dose range of 0.125 μg to 100 μg in 50 μl of either saline or saline plus acetic acid. Immediately after each dose RL was measured. DAP was dissolved as follows: 3 mg of DAP was combined with 100 μl of acetic acid, adjusted to 1.5 to 3 ml by the addition of saline, and heated to 70° C. This gave a final concentration of 1 to 2 μg/μl. Dilutions were performed in the same buffer. Control animals received saline with acetic acid at the same final concentration as indicated.

[5] = tested on: common Beta chain of human GM-CSF, IL-3 and IL-5 receptor; assay: Semi-quantitative RT-PCR of common beta chain mRNA in U937 cells treated with antisense; type: cell-based; conditions: 10 μmol, six hours, compared to AS107
Method: Experiments were performed to assess whether antisense oligonucleotides described in international application WO 99/66037 (incorporated herein) directed against the common beta sub-unit of the IL-3, IL-5 and GM-CSF receptor, could inhibit the expression and the function of this receptor when modified by replacing adenosine by either 2-amino-2′-deoxyadenosine or inosine. TF-1 and U937 cells express high levels of GM-CSF receptors. In addition, TF-1 cells are dependent on GM-CSF for survival. These cells were cultured in RPMI 1640 supplemented with 10% heat-inactivated fetal calf serum, penicillin, streptomycin and 1-glutamine at 37° C. in 5% CO2 (the TF-1 cells were supplemented with GM-CSF). […] The sequence for 107A-DAP was: 5′-GGGTCTGCDapGCGGGDapTGGT-3′ (SEQ ID NO:21); the sequence for 107A-inosine (107A-I) was: 5′-GGGTCTGCIGCGGGIT GGT-3′ (SEQ ID NO:22). The cells were retrieved and washed 3 times. RNA was then retrieved and the presence of the beta chain of the receptor was assessed by semi-quantitative RT-PCR.

rat model of asthma [6] = assay: Leukotriene D4 responsiveness after antigen (ovalbumin) challenge; type: in vivo; conditions: 200 μg intratracheal, 15 hours after ovalbumin challenge; for airway responsiveness to leukotriene D4: vs control challenged and DAP mismatch treated rats
Method: as §1, §2
We have previously shown that the antisense ASA4 (5′-ACTCATATTC ATAGGGTG-3′; SEQ ID NO:26) directed against the rat CCR3 receptor was effective at inhibiting eosinophil influx into the lungs after antigen challenge (see WO 99/66037). We employed the same oligonucleotide sequences for these experiments. […] After 15 hours, the rats were again intubated after general anesthesia, baseline lung resistance measured and doubling concentrations of leukotriene D4 injected intratracheally (50 ng to 1600 ng) until baseline lung resistance doubled (EC200).

[7] = at 5 fold lower concentration (1 μg)
[8] = at peak adenosine toxicity (5 μg)
[9] = 100 μg intratracheal, lung lavage 15 hours later

5′-TGGCDapCTTTDapGGTGGCTG-3′ (antisense TGGCNCTTTNGGTGGCTG; diaminopurine (Dap) replaces adenosine at two places, sugar and backbone not given here, further chemistry not given here) [AS141-DAP]
macrophage recruitment (rat model of asthma [1]; lavage after 15 hours): significantly decreased
recruitment of eosinophils (rat model of asthma [1]; lavage after 15 hours): effectively inhibited

5′-ACTCATATTC ATAGGGTG-3′ (antisense ACTCATATTCATAGGGTG; DNA, all phosphorothioate, methylation of C not given here) [ASA4]
inhibition of the eosinophil influx that occurs after antigen challenge (rat model of asthma [2]): inhibit the eosinophil influx
inhibition of recruitment of eosinophils (rat model of asthma [1]): 84%
lymphocyte recruitment (rat model of asthma [1]; lavage after 15 hours): significant decrease
macrophage recruitment (rat model of asthma [1]; lavage after 15 hours): strong trends for decreases
neutrophil recruitment (rat model of asthma [1]; lavage after 15 hours): strong trends for decreases

Nc1nc(N)c2ncn([C@H]3C[C@H](O)[C@@H](CO)O3)c2n1 [DAP, 2-amino-2-deoxyadenosine]
inhibition of eosinophil recruitment induced by adenosine ([3]; 100 μg DAP followed by 100 μg adenosine 10 minutes later, lavage 15 hours later): completely inhibits the recruitment of eosinophils
relative toxicity ranking (lung resistance) [4, 7]: adenosine>2 amino-2 deoxyadenosine/DAP>rest
relative toxicity ranking (lung resistance) [4, 8]: adenosine>N6-Methyl-2′deoxyadenosine>rest including DAP
effect on lung resistance (% baseline) after intratracheal dosing ([4]; incremental doses 0.125 μg to 100 μg intratracheal, sensitized rats): does not significantly increase lung resistance

Nc1ncnc2c1ncn2[C@@H]1O[C@H](CO)[C@@H](O)[C@H]1O [adenosine, reference compound]
effect on other cell types in lung lavage [3, 9]: without significantly affecting other cell types
increase of eosinophil recruitment into the lungs [3, 9]: more than 10 fold
relative toxicity ranking (lung resistance) [4, 7]: adenosine>2 amino-2 deoxyadenosine/DAP>rest
relative toxicity ranking (lung resistance) [4, 8]: adenosine>N6-Methyl-2′deoxyadenosine>rest including DAP
dose at which lung resistance peaks ([4]; incremental intratracheal doses, sensitized rats): 5 µg

5′-GGGTCTGCIGCGGGIT GGT-3′ (DNA GGGTCTGCNGCGGGNTGGT; DNA, [I] at 9, 15, backbone and methylation of C not given here) [AS107-I, reference compound]
inhibiting mRNA expression, semi-quantitative PCR [5]: not effective

5′-TGGCACTTTAGGTGGCTG-3′ (phosphorothioate backbone, further chemistry not given here) [AS141]
inhibition of the eosinophil influx that occurs after antigen challenge (rat model of asthma [2]): inhibit the eosinophil influx
airway responsiveness to leukotriene D4 (rat model of asthma [6]): decreased significantly
lymphocyte recruitment (rat model of asthma [1]; lavage after 15 hours): significant decrease
macrophage recruitment (rat model of asthma [1]; lavage after 15 hours): significant decrease
neutrophil recruitment (rat model of asthma [1]; lavage after 15 hours): strong trends for decreases
recruitment of eosinophils (rat model of asthma [1]; lavage after 15 hours): effectively inhibited

5′-DapCTCDapTDapTTCDapTDapGGGTG-3′ (antisense NCTCNTNTTCNTNGGGTG; DNA, [DAP] at 1, 5, 7, 11, 13, all phosphorothioate, methylation of C not given here) [ASA4-DAP]
airway responsiveness to leukotriene D4, compared to unchallenged rats (rat model of asthma [6]): no different
airway responsiveness to leukotriene D4, compared to unmodified ASA4 (rat model of asthma [6]): tended to be more effective
airway responsiveness to leukotriene D4 (rat model of asthma [6]): significantly decreased
inhibition of recruitment of eosinophils (rat model of asthma [1]): 83%
decrease of lymphocyte recruitment (rat model of asthma [1]; lavage after 15 hours): 74%
macrophage recruitment (rat model of asthma [1]; lavage after 15 hours): tended to decrease
neutrophil recruitment (rat model of asthma [1]; lavage after 15 hours): tended to decrease

CNc1ncnc2c1ncn2[C@H]1C[C@H](O)[C@@H](CO)O1 [N6-Methyl-2′deoxyadenosine, N6-methyl-2′-deoxyadenosine]
relative toxicity ranking (lung resistance) [4, 8]: adenosine>N6-Methyl-2′deoxyadenosine>rest including DAP
